Measured values as given in patent US20260355188A1, “COMBINATION THERAPIES USING PRMT5 INHIBITORS AND BCL-2 FAMILY INHIBITORS FOR THE TREATMENT OF CANCER” (MIRATI THERAPEUTICS, INC., priority 2022, published 2026).

Columns and labels:
[1] = tested on: NCI-H1437 xenograft tumors; experiment: In vivo combination study (NCI-H1437 model), Example 2; parameters: species or system female nu/nu mice; details: MRTX1719 and ABT-263 100 mg/kg PO QD, A-1331852 25 mg/kg PO QD, alone or combined
From the text: (§1) Immunodeficient female nu/nu mice were implanted with 5×10^6 LU99 cancer cells in 50% Matrigel. Tumor volume measurements were collected using calipers and determined utilizing the formula 0.5×L×W^2 in which L refers to length and W refers to width of each tumor. When tumors reached approximately 125-150 mm^3, animals were randomized to receive A) vehicle, B) a PRMT5 inhibitor, C) navitoclax (ABT-263), D) venetoclax (ABT-199), E) A-1331852, F) the PRMT5 inhibitor and navitoclax, F) the PRMT5 inhibitor and venetoclax, or G) the PRMT5 inhibitor and A-1331852 all administered orally (PO) with the indicated dose and schedule for 20-34 days. Tumor volume was measured twice a week (n=5/treatment group). Average tumor volume and standard error of the mean was calculated and plotted at each study day using GraphPad Prism.
Example 2 was carried out using NCI-H1437 cell line derived xenografts according to the in vivo study procedure described above in Example 1.
(§2) The PRMT5 inhibitor was MRTX1719 administered at 100 mg/kg once a day (QD). MRTX1719 is (2M)-2-(4-(4-(aminomethyl)-1-oxo-1,2-dihydrophthalazin-6-yl)-1-methyl-1H-pyrazol-5-yl)-4-chloro-6-cyclopropoxy-3-fluorobenzonitrile, disclosed as Example 16-8 at p. 307 of the international patent publication No. WO 2021/050915 A1, published 18 Mar. 2021, incorporated by reference in its entirety. The BCL-2 family inhibitor, ABT-263 (navitoclax), was administered at 100 mg/kg once a day (QD) and supplied by Selleck Chemicals (Houston, TX). The BCL-2 family inhibitor A-1331852 was administered at 25 mg/kg once a day (QD) and synthesized at Wuxi AppTec (Wuhan, China).

SW1573 xenograft tumors = experiment: In vivo combination study (SW1573 model), Example 3; parameters: species or system female nu/nu mice; details: MRTX1719 and ABT-263 100 mg/kg PO QD, A-1331852 25 mg/kg PO QD, alone or combined
From the text: as §1
Example 3 was carried out in SW1573 cell line derived xenografts according to the in vivo study procedure described above in Example 1.
as §2

[2] = tested on: NCI-H1650 xenograft tumors; experiment: In vivo combination study (NCI-H1650 model), Example 5; parameters: species or system female nu/nu mice; details: MRTX1719 and ABT-263 100 mg/kg PO QD, A-1331852 25 mg/kg PO BID, alone or combined
From the text: as §1
Example 5 was carried out using NCI-H1650 cell line derived xenografts according to the in vivo study procedure described above in Example 1.
The PRMT5 inhibitor was MRTX1719 administered at 100 mg/kg once a day (QD). MRTX1719 is (2M)-2-(4-(4-(aminomethyl)-1-oxo-1,2-dihydrophthalazin-6-yl)-1-methyl-1H-pyrazol-5-yl)-4-chloro-6-cyclopropoxy-3-fluorobenzonitrile, disclosed as Example 16-8 at p. 307 of the international patent publication No. WO 2021/050915 A1, published 18 Mar. 2021, incorporated by reference in its entirety. The BCL-2 family inhibitor, ABT-263 (navitoclax), was administered at 100 mg/kg once a day (QD) and supplied by Selleck Chemicals (Houston, TX). The BCL-2 family inhibitor A-1331852 was administered at 25 mg/kg twice a day (BID) and synthesized at Wuxi AppTec (Wuhan, China).

H2228 = experiment: In vitro combination synergy, H2228 (Cell-Titer Glo); assay type: cell-based; details: combined with exemplary PRMT5 inhibitor, 120 h, sum of Loewe, Bliss, HSA and ZIP scores
Experimental: (§3) A panel of MTAP-deleted cancer cell lines was assembled to determine whether combining BCL-2 family inhibitors with exemplary PRMT5 inhibitors disclosed herein results in synergistic activity.
(§4) [Assays for determining the synergy score for the pairwise combinations for each cell line were performed in triplicate. 384 or 96-well plates plus additional wells of a separate 384 or 96-well control plate for determining baseline luminescence were seeded with cells of a particular MTAP-deleted cell line in a suitable growth medium for that cell line, e.g., RPMI 1640 medium supplemented with 10% FBS and any cell line specific reagents needed for growth. The plates were incubated overnight at 37 °C in a 5% CO2 atmosphere.
(§5) To each of the designated baseline wells, Cell-Titer Glo reagent (CTG; Promega Corporation) was added to each well and the plates were incubated for 20 min shaking at room temperature. Baseline luminescence was quantitated using a BMG ClarioStar multimode plate reader according to the manufacturer's instructions.
(§6) A series of 1000× drug dilutions in 100% DMSO was prepared that includes a 9-point single agent 3-fold dilution of the exemplary PRMT5 inhibitor (of the type described in WO2021/050915) with a top dose of 3000 nM (and a 6-point single agent 5-fold dilution of the BCL-2 family inhibitor with a top dose of 3000 nM as reference standards.
(§7) A 10× intermediate dosing plate was prepared in serum free medium that contains arrayed single agent dilutions of exemplary PRMT5 inhibitor (of the type described in WO2021/050915) and or the BCL-2 family inhibitor. In addition, a matrix of 54 dilution combinations of exemplary PRMT5 inhibitor (of the type described in WO2021/050915) and the BCL-2 family inhibitor was prepared as test samples.
(§8) To each corresponding well of the 384-well plates seeded with the appropriate cell line above, 10× single agent and the 54 combinations of the dose matrix was added and the plates were incubated for 120 hours at 37 °C in 5% CO2 atmosphere. Cell-Titer Glo reagent (CTG) was added to each test well, the plates were incubated for 20 min shaking at room temperature, and luminescence was quantitated using a BMG ClarioStar multimode plate reader according to the manufacturer's instructions. To normalize test samples, the determined baseline luminescence was subtracted from each test sample prior to analysis and mean values are calculated from replicate samples.
(§9) The output of the data from each mathematical model is the assignment of a relative synergy score. The data reported in Table 6 are the aggregate sum of the Loewe additivity, Bliss independence, Highest Single Agent and ZIP synergy scores (“Composite Synergy Score”).

SW1573 = experiment: In vitro combination synergy, SW1573 (Cell-Titer Glo); assay type: cell-based; details: combined with exemplary PRMT5 inhibitor, 120 h, sum of Loewe, Bliss, HSA and ZIP scores
Experimental: as §3, §4, §5, §6, §7, §8, §9

How did the “Average Tumor Volume” value ([1]; day 4) turn out when `Cc1c(-c2ccc(N3CCc4cccc(C(=O)Nc5nc6ccccc6s5)c4C3)nc2C(=O)O)cnn1CC12CC3CC(CC(C3)C1)C2` [A-1331852] was run?
Its value is 171 mm^3.

What about the “Average Tumor Volume” value ([1]; day 7) of the same molecule?
Its value is 191 mm^3.

And the “Average Tumor Volume” value ([1]; day 11)?
Its value is 248 mm^3.

And the “Average Tumor Volume” value ([1]; day 14)?
The value was 300 mm^3.

What about the “Average Tumor Volume” value ([1]; day 18) of the same molecule?
Its value is 332 mm^3.

And the “Average Tumor Volume” value ([1]; day 21)?
Its value is 376 mm^3.

What about the “Average Tumor Volume” value ([1]; day 25) of the same molecule?
The value was 467 mm^3.

And the “Average Tumor Volume” value ([1]; day 28)?
The value was 564 mm^3.

What about the “Average Tumor Volume” value ([1]; day 34) of the same molecule?
The value was 683 mm^3.

And the “Average Tumor Volume” value ([1]; day −1)?
The value was 139 mm^3.

What about the “Average Tumor Volume” value (SW1573 xenograft tumors; day 3) of the same molecule?
Its value is 209 mm^3.

What about the “Average Tumor Volume” value (SW1573 xenograft tumors; day 6) of the same molecule?
Its value is 250 mm^3.

What about the “Average Tumor Volume” value (SW1573 xenograft tumors; day 10) of the same molecule?
The value was 271 mm^3.

And the “Average Tumor Volume” value (SW1573 xenograft tumors; day 13)?
The value was 305 mm^3.

And the “Average Tumor Volume” value (SW1573 xenograft tumors; day 17)?
The value was 421 mm^3.

What about the “Average Tumor Volume” value (SW1573 xenograft tumors; day 20) of the same molecule?
The value was 456 mm^3.

What about the “Average Tumor Volume” value (SW1573 xenograft tumors; day 26) of the same molecule?
Its value is 609 mm^3.

And the “Average Tumor Volume” value (SW1573 xenograft tumors; day −1)?
Its value is 125 mm^3.

What about the “Average Tumor Volume” value ([2]; day 0) of the same molecule?
The value was 143 mm^3.

And the “Average Tumor Volume” value ([2]; day 5)?
Its value is 163 mm^3.

What about the “Average Tumor Volume” value ([2]; day 8) of the same molecule?
Its value is 189 mm^3.

What about the “Average Tumor Volume” value ([2]; day 13) of the same molecule?
Its value is 255 mm^3.

What about the “Average Tumor Volume” value ([2]; day 15) of the same molecule?
Its value is 291 mm^3.

And the “Average Tumor Volume” value ([2]; day 19)?
Its value is 347 mm^3.

And the “Average Tumor Volume” value ([2]; day 22)?
The value was 366 mm^3.

And the “Composite Synergy Score” value (H2228)?
The value was 36.

What about the “Composite Synergy Score” value (SW1573) of the same molecule?
The value was 50.

`Cn1ncc(-c2ccc3c(=O)[nH]nc(CN)c3c2)c1-c1c(F)c(Cl)cc(OC2CC2)c1C#N` (atropisomer, axis not shown; (M)) [MRTX1719, (2M)-2-(4-(4-(aminomethyl)-1-oxo-1,2-dihydrophthalazin-6-yl)-1-methyl-1H-pyrazol-5-yl)-4-chloro-6-cyclopropoxy-3-fluorobenzonitrile] was tested. Which “Average Tumor Volume” value ([1]; day 4) did it give?
The value was 200 mm^3.

What about the “Average Tumor Volume” value ([1]; day 7) of the same molecule?
Its value is 244 mm^3.

And the “Average Tumor Volume” value ([1]; day 11)?
The value was 268 mm^3.

And the “Average Tumor Volume” value ([1]; day 14)?
The value was 288 mm^3.

And the “Average Tumor Volume” value ([1]; day 18)?
Its value is 316 mm^3.

What about the “Average Tumor Volume” value ([1]; day 21) of the same molecule?
Its value is 322 mm^3.

What about the “Average Tumor Volume” value ([1]; day 25) of the same molecule?
The value was 340 mm^3.

And the “Average Tumor Volume” value ([1]; day 28)?
Its value is 362 mm^3.

And the “Average Tumor Volume” value ([1]; day 34)?
The value was 441 mm^3.

What about the “Average Tumor Volume” value ([1]; day −1) of the same molecule?
Its value is 139 mm^3.

What about the “Average Tumor Volume” value (SW1573 xenograft tumors; day 3) of the same molecule?
The value was 172 mm^3.

And the “Average Tumor Volume” value (SW1573 xenograft tumors; day 6)?
The value was 220 mm^3.

What about the “Average Tumor Volume” value (SW1573 xenograft tumors; day 10) of the same molecule?
The value was 229 mm^3.

And the “Average Tumor Volume” value (SW1573 xenograft tumors; day 13)?
Its value is 242 mm^3.

What about the “Average Tumor Volume” value (SW1573 xenograft tumors; day 17) of the same molecule?
Its value is 319 mm^3.

What about the “Average Tumor Volume” value (SW1573 xenograft tumors; day 20) of the same molecule?
The value was 387 mm^3.

What about the “Average Tumor Volume” value (SW1573 xenograft tumors; day 26) of the same molecule?
The value was 444 mm^3.

What about the “Average Tumor Volume” value (SW1573 xenograft tumors; day −1) of the same molecule?
The value was 126 mm^3.

What about the “Average Tumor Volume” value ([2]; day 0) of the same molecule?
Its value is 149 mm^3.

What about the “Average Tumor Volume” value ([2]; day 5) of the same molecule?
The value was 246 mm^3.

And the “Average Tumor Volume” value ([2]; day 8)?
Its value is 292 mm^3.

And the “Average Tumor Volume” value ([2]; day 13)?
Its value is 344 mm^3.

What about the “Average Tumor Volume” value ([2]; day 15) of the same molecule?
Its value is 398 mm^3.

And the “Average Tumor Volume” value ([2]; day 19)?
Its value is 469 mm^3.

And the “Average Tumor Volume” value ([2]; day 22)?
Its value is 510 mm^3.

Which results are given for `CC1(C)CCC(c2ccc(Cl)cc2)=C(CN2CCN(c3ccc(C(=O)NS(=O)(=O)c4ccc(N[C@H](CCN5CCOCC5)CSc5ccccc5)c(S(=O)(=O)C(F)(F)F)c4)cc3)CC2)C1` [ABT-263, navitoclax]?
Average Tumor Volume ([1]; day 4): 172 mm^3; Average Tumor Volume ([1]; day 7): 192 mm^3; Average Tumor Volume ([1]; day 11): 244 mm^3; Average Tumor Volume ([1]; day 14): 269 mm^3; Average Tumor Volume ([1]; day 18): 288 mm^3; Average Tumor Volume ([1]; day 21): 299 mm^3; Average Tumor Volume ([1]; day 25): 389 mm^3; Average Tumor Volume ([1]; day 28): 420 mm^3; Average Tumor Volume ([1]; day 34): 472 mm^3; Average Tumor Volume ([1]; day −1): 138 mm^3; Average Tumor Volume (SW1573 xenograft tumors; day 3): 265 mm^3; Average Tumor Volume (SW1573 xenograft tumors; day 6): 328 mm^3; Average Tumor Volume (SW1573 xenograft tumors; day 10): 395 mm^3; Average Tumor Volume (SW1573 xenograft tumors; day 13): 536 mm^3; Average Tumor Volume (SW1573 xenograft tumors; day 17): 678 mm^3; Average Tumor Volume (SW1573 xenograft tumors; day 20): 809 mm^3; Average Tumor Volume (SW1573 xenograft tumors; day 26): 1133 mm^3; Average Tumor Volume (SW1573 xenograft tumors; day −1): 123 mm^3; Average Tumor Volume ([2]; day 0): 155 mm^3; Average Tumor Volume ([2]; day 5): 186 mm^3; Average Tumor Volume ([2]; day 8): 210 mm^3; Average Tumor Volume ([2]; day 13): 302 mm^3; Average Tumor Volume ([2]; day 15): 319 mm^3; Average Tumor Volume ([2]; day 19): 339 mm^3; Average Tumor Volume ([2]; day 22): 371 mm^3; Composite Synergy Score (H2228): 24; Composite Synergy Score (SW1573): 14
